Consider six compounds from paper PMC11474946, “Role of DNA Double-Strand Break Formation in Gyrase Inhibitor-Mediated Killing of Nonreplicating Persistent Mycobacterium tuberculosis in Caseum” (ACS Infectious Diseases, 2024).

Usually EC50 stands for the concentration giving half of the maximal effect. Read a low EC50 as higher potency in that assay.

The first test deals with T1, M. tuberculosis gyrase (MTB DNA gyrase) (Mycobacterium tuberculosis, UniProt P9WG45+P9WG47).
T1 construct: gene gyrA
T1 sequence (P9WG47 2-838): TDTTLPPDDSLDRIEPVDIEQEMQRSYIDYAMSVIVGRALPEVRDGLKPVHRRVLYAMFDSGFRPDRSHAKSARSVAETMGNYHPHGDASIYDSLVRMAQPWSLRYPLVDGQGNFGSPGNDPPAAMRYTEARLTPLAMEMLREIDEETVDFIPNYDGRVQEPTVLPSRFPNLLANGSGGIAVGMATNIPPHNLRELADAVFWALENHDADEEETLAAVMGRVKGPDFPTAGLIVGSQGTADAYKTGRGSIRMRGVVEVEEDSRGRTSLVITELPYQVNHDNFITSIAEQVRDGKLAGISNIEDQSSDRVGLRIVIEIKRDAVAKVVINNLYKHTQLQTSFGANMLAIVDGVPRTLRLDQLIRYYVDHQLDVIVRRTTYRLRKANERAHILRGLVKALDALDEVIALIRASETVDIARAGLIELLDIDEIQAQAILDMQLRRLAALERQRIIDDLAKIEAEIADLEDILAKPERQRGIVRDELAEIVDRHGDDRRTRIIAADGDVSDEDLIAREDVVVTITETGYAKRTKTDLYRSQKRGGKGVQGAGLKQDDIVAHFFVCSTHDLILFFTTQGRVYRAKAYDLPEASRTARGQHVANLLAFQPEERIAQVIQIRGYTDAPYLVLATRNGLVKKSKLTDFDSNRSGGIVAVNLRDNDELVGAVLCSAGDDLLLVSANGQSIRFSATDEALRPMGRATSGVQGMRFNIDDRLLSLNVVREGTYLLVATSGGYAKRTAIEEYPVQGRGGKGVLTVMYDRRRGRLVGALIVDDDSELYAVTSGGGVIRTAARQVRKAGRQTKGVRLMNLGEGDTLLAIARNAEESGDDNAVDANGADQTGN
T1 sequence (P9WG45 whole entry): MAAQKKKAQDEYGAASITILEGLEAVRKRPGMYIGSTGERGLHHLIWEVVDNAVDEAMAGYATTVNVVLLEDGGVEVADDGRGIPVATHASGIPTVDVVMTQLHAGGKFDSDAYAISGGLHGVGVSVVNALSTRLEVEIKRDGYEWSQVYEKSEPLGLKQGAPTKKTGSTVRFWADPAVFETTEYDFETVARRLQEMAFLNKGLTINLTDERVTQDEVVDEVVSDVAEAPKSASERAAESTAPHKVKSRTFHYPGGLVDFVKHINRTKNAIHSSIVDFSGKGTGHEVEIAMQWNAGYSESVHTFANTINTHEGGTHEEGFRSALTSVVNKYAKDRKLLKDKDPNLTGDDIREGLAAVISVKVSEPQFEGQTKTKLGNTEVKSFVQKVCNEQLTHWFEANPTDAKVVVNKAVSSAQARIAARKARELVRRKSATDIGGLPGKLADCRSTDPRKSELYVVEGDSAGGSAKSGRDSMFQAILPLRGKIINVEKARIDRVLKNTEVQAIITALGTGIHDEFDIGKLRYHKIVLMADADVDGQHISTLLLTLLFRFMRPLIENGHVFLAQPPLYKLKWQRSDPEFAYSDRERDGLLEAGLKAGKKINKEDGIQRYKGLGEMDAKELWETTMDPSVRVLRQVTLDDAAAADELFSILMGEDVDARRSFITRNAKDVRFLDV
In words: DNA supercoiling inhibition, relaxed pBR322, agarose gel. The test is classed as biochemical.
Settings: not given
Regarding `Nc1nc(-n2cc(C(=O)O)c(=O)c3cc(F)c(N4CC(O)C4)c(Cl)c32)c(F)cc1F` [Delafloxacin], the concentration for a half-maximal effect (EC50) is 23000 nM.

`COc1c(N2CCNC(C)C2)c(F)cc2c(=O)c(C(=O)O)cn(C3CC3)c12` (stereo not drawn) [Gatifloxacin]: the EC50 stood at 5000 nM.

On to `C[C@H]1COc2c(N3CCN(C)CC3)c(F)cc3c(=O)c(C(=O)O)cn1c23` [Levofloxacin], for which the concentration for a half-maximal effect (EC50) turned out to be 10000 nM.

The compound `CCNC(=O)Nc1nc2cc(-c3cnc(C(C)(C)O)nc3)c(F)c([C@H]3CCCO3)c2[nH]1` [SPR719] yielded a half-maximal effective concentration (EC50) of 300 nM.

Regarding `N[C@@H]1CN(c2c(F)cc3c(=O)c(C(=O)O)cn([C@@H]4C[C@@H]4F)c3c2Cl)CC12CC2` [Sitafloxacin], the response was half-maximal at 1000 nM (EC50).

The test is the same for the next values; noted with them: 37 °C, 30 min, relaxed pBR322.
In the case of EC/11716, the EC50 stood at 100 nM.
